The source of these data is patent US6911432B2, “Drugs, foods or drinks with the use of algae-derived physiologically active substances” (priority 1997, dated 2005).

SMILES strings stand for the structures.

One data set concerns RAW 264.7 cells. As to the kind of experiment: NO production induced by LPS, NO2- concentration in medium. The class given is cell-based, mouse. Particulars: RAW 264.7; 10 μl of 5000 to 50 μM solution per 500 μl well; 12 hours. The protocol: (1) RAW 264.7 cells (ATCC TIB 71) were suspended in phenol red-free Dulbecco's modified Eagle's medium containing 10% fetal bovine serum (manufactured by Gibco) and 2 mM L-glutamine (manufactured by Life Technologies Oriental, 25030-149) at a concentration of 3×10^5 cells/ml, and 500 μl portions thereof were seeded to respective wells of a 48-well microtiter plate and incubated at 37° C. for 12 hours in the presence of 5% CO2. To each well were added 10 μl of 25 μg/ml lipopolysaccharide (LPS, manufactured by Sigma, L-2012) and 10 μl of aqueous 5000, 1500, 500, 150 or 50 μM agarobiose or neoagarobiose (manufactured by Sigma, G4410) solution, and the plate was incubated for additional 12 hours. Then, concentration of NO2^− produced by oxidation of NO in the medium was measured. As control groups, a group to which LPS was not added and a group to which agarobiose or neoagarobiose was not added were provided.
After incubating as described above, 100 μl of 4% Greece reagent (manufactured by Sigma, G4410) was added to 100 μl of the medium, and the mixture was allowed to stand for 15 minutes at room temperature. Then, the absorbance at 490 nm was measured. NO2^− concentration in the medium was calculated with reference to a calibration curve prepared by using NaNO2 at given concentrations dissolved in the same medium as that described above. All the measurements were carried out in triplicate.
(2) A suspension of 5 g of commercially available agar (Ina agar type S-7, manufactured by Ina Shokuhin Kogyo) in 45 ml of 0.1 N HCl was treated at 95° C. for 13 minutes. After cooling to room temperature, the suspension was neutralized with NaOH and filtered through 0.22 μm MILLEX-GP filter (manufactured by Milipore, SLGPR25LS). […] Namely, 10 μl of 25 μg/ml LPS and 10 μl of a 20-fold dilution of the sample mentioned above were added to wells of a 48 well microtiter plate containing RAW264.7 cells which had been incubated in the wells. The measurement was carried out with the culture medium. As control groups, a group to which LPS was not added, a group to which a sample was not added and a group to which 2.5 mM citric acid was added were provided. All the measurement were carried out in duplicate.

The subject of a further data set is spleen lymphocytes. As to the kind of experiment: mixed lymphocyte reaction, 3H-thymidine uptake. Type of data set: cell-based, BALB/c mouse and C57BL/6 mouse. The protocol: Spleens were taken out from a BALB/c mouse (Nippon SLC; male, 6 weeks old) and a C57BL/6 mouse (Nippon SLC; male, 6 weeks old) and spleen lymphocytes were obtained by the above-described method. Each cell suspension was adjusted to a concentration of 2×10^6 cell/ml, 100 μl portions from respective suspensions were mixed together and seeded in a 96 well microtiter plate. Agarobiose at varying concentration was added to the wells other than the control well, and the plate was incubated at 37° C. for 4 days in a carbon dioxide incubator. After incubation, 1 μCi of ^3H-thymidine was added to each well, and the plate was incubated for additional 1 day. Its uptake into cells was measured using a liquid scintillation counter.
That is, FIG. 35 illustrates the relation between the agarobiose concentration and the ^3H-thymidine uptake in the mixed lymphocyte reaction. The horizontal axis represents the agarobiose concentration and the vertical axis represents ^3H-thymidine uptake (cpm). The open bar and the shaded bar represent ^3H-thymidine uptake in case where cells from either one of the lines were used independently, and in case where mixed cells from both of the lines were used, respectively. […] Thus, the inhibitory activity against lymphocyte activation of agarobiose has been recognized.

Data set [1] in a line: reaction with L-cysteine or L-lysine in phosphate buffered saline at 37° C., thin layer chromatography. The class given is physicochemical. Here is the method: (2) Agarobiose and agarohexaose obtained in Example 14-(1) were dissolved in water to prepare 100 mM aqueous solutions thereof. To each 25 μl of these solutions was added 50 μl of 100 mM aqueous L-cysteine solution, followed by addition of 925 μl of phosphate buffered saline. Then, the mixture was treated at 37° C. for 1 hour or 16 hours. The same reaction was repeated except that an aqueous solution containing the same concentration of L-lysine was used instead of the aqueous L-cysteine solution.
1 μl of a sample from each reaction was spotted on a silica gel sheet 60 F254, developed with 1-butanol:ethanol:water=5:5:1 and detected by orcinol-sulfate method.

The subject of a further data set is iNOS. As to the kind of experiment: iNOS expression by western blotting and RT-PCR. The conditions noted are these: protein level by western blotting, messenger RNA level by RT-PCR. The class given is cell-based. The protocol: The confirmation was carried out at protein level by western blotting and at messenger RNA level by RT-PCR. That is, the compounds used in the present invention are useful for treating and preventing diseases that require inhibition of NO production by inhibiting expression of iNOS which is overexpressed by various factors to produce excess NO.

The subject of data set [2] is lipid peroxide radical production. As to the kind of experiment: inhibition of lipid peroxide radical production (tert-butyl hydroperoxide, bacterial growth readout). Type of data set: cell-based, Staphylococcus aureus 3A. Also noted: key to growth of the bacterium (activity of inhibiting lipid peroxide radical production): + represents the sample in which the growth of the bacterium was observed; −represents the sample in which the growth of the bacterium was not observed. The protocol:
Staphylococcus aureus 3A (National Collection Of Type Culture, NCTC 8319) was inoculated into 5 ml of brain heart infusion medium (manufactured by Difco, 0037-17-8) and cultured at 37° C. overnight. The bacterial cells were collected by centrifugation, washed with phosphate buffered saline 3 times and then suspended in phosphate buffered saline at a concentration of 1×10^7 colony forming units/ml. A mixture of 100 μl of the cell suspension, 100 μl of an aqueous sample solution, 100 μl of aqueous 1 mg/ml methemoglobin (manufactured by Sigma M9250) solution, 600 μl of phosphated buffered saline and 100 μl of aqueous 50 mM tert-butyl hydroperoxide (manufactured by Katayama Kagaku, 03-4990) solution were reacted at 37° C. for 30 minutes. To the reaction mixture was added 1 ml of 2×NMP medium [prepared by dissolving 8 g of nutrient broth (manufactured by Difco, 0003-01-6), 5 g of trypton (manufactured by Difco, 0123-17-3), 5 g of NaCl, 10 g of mannitol (manufactured by Nacalai Tesque, 213-03) and 0.035 g of phenol red (manufactured by Nacalai Tesque, 268-07) in distilled water to make the volume up to 500 ml. The pH was adjusted to 7.5 with NaOH and then the mixture was sterilized by filtration] to stop the reaction. The resultant mixture was diluted every 3-folds with NMP medium (prepared by diluting 2×NMP medium 2-folds with sterilized water) to prepare 12 serial dilutions and 160 μl of each dilution was placed in each well of a 96-well microtiter plate. The plate was incubated at 37° C. overnight.
In Table 14, + represents the sample in which the growth of the bacterium was observed, and −represents the sample in which the growth of the bacterium was not observed. The concentration shown in the uppermost line of the table is that of the sample in the reaction mixture in which the sample was reacted with tert-butyl hydroperoxide and the bacterial cells at 37° C. for 30 minutes.

[3] abbreviates: 0.1 mM sample in the reaction mixture.
Setting [4] is: 1 mM sample in the reaction mixture.

On to `OC[C@H]1O[C@@H](O[C@H]2[C@H]3OC[C@@H]2OC(O)[C@H]3O)[C@H](O)[C@@H](O)[C@H]1O` (mixture of isomers) [Agarobiose, agarobiose], for which the “inhibition of NO production induced by LPS (in words)” value with RAW 264.7 cells is given as “dose-dependently inhibited”. For the same molecule, the “inhibitory activity against mixed lymphocyte reaction (in words)” value with spleen lymphocytes is given as “dose-dependent inhibitory activity”. Besides, the “inhibition of lymphocytes activation by stimulation with an alloantigen” value in the data set on spleen lymphocytes (10 μg/ml) was “almost completely inhibits”. In addition, the “spot of the saccharide on thin layer chromatography after reaction” value in data set [1] (L-cysteine, 1 hour) was “disappeared”; in data set [1] (L-cysteine, 16 hours), “disappeared”; in data set [1] (L-lysine, 16 hours) it was “disappeared”. For the same molecule, the “inhibition of iNOS expression” value in the data set with iNOS is “inhibit this iNOS expression”. In addition, the “activity of inhibiting lipid peroxide radical production (in words)” value in data set [2] was “strong activity”. In addition, the “growth of the bacterium (activity of inhibiting lipid peroxide radical production)” value in data set [2] (setting [3]) and in data set [2] (setting [4]) was “+” each time.

For `OC[C@H]1O[C@@H](O[C@H]2[C@H]3OC[C@@H]2O[C@@H](O[C@H]2[C@@H](O)[C@@H](CO)O[C@@H](O[C@H]4[C@H]5OC[C@@H]4OC(O)[C@H]5O)[C@@H]2O)[C@H]3O)[C@H](O)[C@@H](O)[C@H]1O` (some centres unmarked) [Agarotetraose, agarotetraose], the “spot of the saccharide on thin layer chromatography after reaction” value in data set [1] (L-cysteine, 1 hour) is “disappeared”; in data set [1] (L-cysteine, 16 hours), “disappeared”; in data set [1] (L-lysine, 16 hours) it was “disappeared”. In the data set on iNOS, the “inhibition of iNOS expression” value is reported as “inhibit this iNOS expression”. Moreover, in data set [2], the “activity of inhibiting lipid peroxide radical production (in words)” value was “strong activity”. For the same molecule, the “growth of the bacterium (activity of inhibiting lipid peroxide radical production)” value in data set [2] (setting [3]) is “−”; in data set [2] (setting [4]) it was “+”.
